In patent publication EP2799881A1, “Method for the determination of the presence of an antibiotic in a fluid” (DSM IP Assets B.V., priority 2013, dated 2014):

Tested on: test organism
Assay: Microbial growth inhibition test (DSM Delvotest® SP-NT), detection limit of antibiotics in spiked milk, with tomatidine added to the test medium
Type: cell-based
Conditions: 64 °C
Method: As a reference, a commercially available test system without any added steroidal glycoalkaloid aglycone (DSM Delvotest® SP-NT, plates containing 8 x 12 test wells) was used. In addition, four different test systems were prepared by modifying the reference test by adding the steroidal glycoalkaloid aglycone tomatidine to the test medium in a final concentration of 50 ppb, 100 ppb, 500 ppb or 2000 ppb. The detection limits of two different antibiotics were measured in the reference test and in the tests with modified medium containing different concentrations of tomatidine. The antibiotics that were measured were streptomycin and dihydrostreptomycin (DH-streptomycin) (both belonging to the aminoglycoside antibiotic family). Five different concentrations of each antibiotic (see Table 1) were measured. Hundred microliter antibiotic-free milk or hundred microliter milk spiked with the respective concentrations of antibiotic was added to the test medium (170 µl) and incubated at 64 °C in a water bath. The tests were visually determined at the point in time where a sample without antibiotic had changed colour from purple to yellow. At this point, the plates were cooled in an ice bath for 5 minutes. The cooled plates were scanned on a Delvo® scanner. The colour of each well was expressed as a Z-value; a purple colour gives rise to a positive Z-value, while a yellow colour has a negative Z-value. The Z-value of test results with samples without antibiotic is typically -5 < Z < -10. Detailed description of the scanning technology and the expression of the colour in Z-values are described in WO 03/033728. For the determination of the detection limit for each antibiotic, a dose-response function (Z-value versus concentration of antibiotic) was constructed. The detection limit is defined as the antibiotic concentration where the S-shaped dose-response function has a Z-value equal to the cut-off value.

[1] = Tomatidine concentration in test 0 ppb (reference Delvotest® SP-NT), cut-off Z-value 0
[2] = Tomatidine concentration in test 50 ppb, cut-off Z-value 0, tomatidine 50 ppb in test
[3] = Tomatidine concentration in test 100 ppb, cut-off Z-value 0, tomatidine 100 ppb in test
[4] = Tomatidine concentration in test 500 ppb, cut-off Z-value 0, tomatidine 500 ppb in test
[5] = Tomatidine concentration in test 2000 ppb, cut-off Z-value 0, tomatidine 2000 ppb in test

| SMILES | Detection limit [1] | Detection limit [2] | Detection limit [3] | Detection limit [4] | Detection limit [5] |
| --- | --- | --- | --- | --- | --- |
| [H]/N=C(/N)N[C@H]1[C@H](O)[C@@H](O)[C@H](O[C@@H]2O[C@@H](C)[C@](O)(C=O)[C@H]2O[C@@H]2O[C@@H](CO)[C@H](O)[C@@H](O)[C@@H]2NC)[C@@H](N/C(N)=N\[H])[C@@H]1O [Streptomycin, streptomycin] | 2005 ppb | 1523 ppb | 398 ppb | 295 ppb | 79 ppb |
| CN[C@@H]1[C@H](O[C@H]2[C@H](O[C@H]3[C@H](O)[C@@H](O)[C@H](NC(=N)N)[C@@H](O)[C@@H]3NC(=N)N)O[C@@H](C)[C@]2(O)CO)O[C@@H](CO)[C@H](O)[C@H]1O [DH-streptomycin, dihydrostreptomycin] | 1471 ppb | 1075 ppb | 365 ppb | 150 ppb | 115 ppb |
